Tests used:
[1] = test system: Mycobacterium tuberculosis (M. tuberculosis H37Rv); test: Antibacterial test (agar plate dilution method), M. tuberculosis H37Rv; format: cell-based; settings: 336 h, 7H11 agar medium, about 10^6 CFU/mL, 37° C. for 14 days, read-out: minimum inhibitory concentration against M. tuberculosis H37Rv
[2] = test system: Mycobacterium tuberculosis (M. tuberculosis Kurono); test: Antibacterial test (agar dilution method), M. tuberculosis Kurono; format: cell-based; settings: Mycobacterium tuberculosis, 336 h; 7H11 agar medium, about 10^6 CFU/mL, 37° C. for 14 days; read-out: Minimum inhibitory concentration (MIC) kurono

| Compound | MIC [1] | MIC [2] | melting point |
| --- | --- | --- | --- |
| O=C1CCc2c(OC[C@]3(O)CCN(c4ccc(Cl)cc4F)C[C@H]3O)ccc(F)c2N1 [Example 259, 5-{[(3R,4R)-1-(4-Chloro-2-fluorophenyl)-3,4-dihydroxypiperidin-4-yl]methoxy}-8-fluoro-3,4-dihydroquinolin-2(1H)-one] | < 0.39 µg/mL | < 0.39 µg/mL | – |
| O=C1CCc2c(OC[C@@]3(O)CCN(c4ccc(Br)cc4F)C[C@H]3O)ccc(Cl)c2N1 [Example 364, 5-{[(3R,4S)-1-(4-Bromo-2-fluorophenyl)-3,4-dihydroxypiperidin-4-yl]methoxy}-8-chloro-3,4-dihydroquinolin-2(1H)-one] | – | < 0.39 µg/mL | 185.8 to 186 °C |
| O=C1CCc2c(OCC3(O)CCN(c4c(F)cc(Cl)cc4F)CC3)ccc(Cl)c2N1 [Example 102, 8-Chloro-5-{[1-(4-chloro-2,6-difluorophenyl)-4-hydroxypiperidin-4-yl]methoxy}-3,4-dihydroquinolin-2(1H)-one] | – | < 0.39 µg/mL | 181 to 181.2 °C |
| CCOc1ccc(N2CCC(O)(COc3ccc(F)c4c3CCC(=O)N4)CC2)c(F)c1 [Example 85, 5-{[1-(4-Ethoxy-2-fluorophenyl)-4-hydroxypiperidin-4-yl]methoxy}-8-fluoro-3,4-dihydroquinolin-2(1H)-one] | – | < 0.39 µg/mL | 196 to 196.1 °C |

— patent US10464926B2, “Heterobicyclic compounds and their use for the treatment of tuberculosis” (OTSUKA PHARMACEUTICAL CO., LTD., priority 2014, dated 2019)
